Assay results as given in US11708393B2, “Targeted non-invasive imaging probes of EGFR expressing cells” (priority 2011, dated 2023).
Entries after “also recorded” stand apart in the source; their conditions may differ. Cy5.5 = cyanine fluorochrome label, coupled as NHS ester; AEEA = NCCOCCOCC(=O)O

What was measured:
[1] = system: Gli36Δ5 orthotopic brain tumors overexpressing EGFR; assay: Ex vivo fluorescence imaging of brains with orthotopic Gli36Δ5 tumors; assay type: in vivo, mice; details: for accumulation in tumor, % of injected dose: 1 nmol/g tail vein, 1 hour, brains imaged ex vivo; for tumor targeting (in words): 1 nmol/g, ex vivo analysis of brain tissues
Experimental: NIH athymic nude female mice (5-8 weeks and 20-25 g upon arrival, NCI-NIH) were maintained at the Animal Resource Center at Case Western Reserve University (Cleveland, Ohio) according to institutional policies. Cell for brain implantation were harvested with 1 mL 0.05% trypsin-EDTA (Gibco) and briefly washed with PBS. Trypsin was inactivated by the addition of serum-containing media. The resulting cell suspension was centrifuged at […] for 3 minutes. The cell suspension was centrifuged and the supernatant was removed after 2 washes in PBS. Finally, the cells were resuspended in […] PBS for brain implants per animal (250,000 cells per animal for brain implants). Immediately following the cell harvesting procedure, animals were inoculated. For brain tumor implantation, mice were anesthetized by intraperitoneal (i.p.) injection of 50 mg/kg ketamine/xylazine and fitted into a stereotaxic rodent frame (David Kopf Instruments). A small incision was made just lateral to midline to expose bregma suture. A small (1.0 mm) burr hole was drilled at anterior (AP)=+1, lateral (ML)=−2.5 from the bregma. Glioblastoma cells were slowly deposited at a rate of 1 μL/min in the right striatum at a depth of 3 mm from dura with a 10-μL syringe (23-G needle). The needle was slowly withdrawn and the incision was closed with 2 to 3 sutures. Brain tumors grew for 10 to 12 days as per IACUC protocols at which point in vivo imaging studies were conducted. As control for the effects of surgical intervention, animals were also subjected to the implantation procedure but Optical Imaging of Tumors with EGFR Overexpression received 2 μL PBS (sham animals). Animals were fed exclusively on a special rodent diet (Harlan Laboratories, Inc.; Tekland 2018S) to reduce autofluorescence.
Mice bearing brain tumors derived from Gli36Δ5 or U87-MG cells were administered with compounds at 1 nmol/g via tail vein injection. In vivo competition assays were done with mixture of compound 2 and 10-fold concentration of nonlabeled probe 5. Before injection, mice were anesthetized with isoflurane and subjected to tomographic and spectral fluorescence imaging. One hour after injection, animals were re-imaged. Brains were then extracted and imaged. The excised brains were embedded in Tissue-Tek optimum cutting temperature for cryosections for immunohistochemistry (IHC). Fluorescence-mediated molecular tomography (FMT) images were obtained using FMT2500 (Perkin-Elmer), and 3-dimensional reconstructions of fluorescent signals were acquired using the accompanying software TrueQuant. Quantitative fluorescent signals for Cy5.5 of compound 2 were calibrated as per manufacturer's instructions using the 680-channel. Region of interest (ROI) assigned on the basis of the precise placement of cells during implantation at 3 to 4 mm into the brain. ROI was corroborated with fluorescent signals from ex vivo imaging. Fluorescent multispectral images were obtained using the Maestro In-Vivo Imaging System (CRi, Inc.). […] Fluorescence images were acquired before treatment, immediately after and 1.5 hours after treatment. To compare signal intensities, ROIs were selected over the tumor or nontumor areas, and the change in fluorescence signal over baseline was determined. […] The total signal in the ROI defined in photons measured at the surface of the animal was divided by the area (in pixels). Spectral libraries were generated by assigning spectral peaks to background and fluorescence probe on tissue. […]

Gli36Δ5 cells = assay: Receptor uptake, cell-associated fluorescence in Gli36Δ5 cells; assay type: cell-based, human; details: 1 μmol/L compound
Experimental: FIG. 2 illustrates a plot showing cell associated fluorescence measured using spectrofluorometry at the indicated times for Gli36Δ5 cells incubated with 1 μmol/L of compounds 1 to 4 [Cy5.5-(AEEA)n-EGFpep].
FIGS. 3(A-B) illustrate images showing Gli36Δ5 (A) and U87-MG (B) cells incubated with 1 μmol/L compounds for the indicated times. Uptake of the compounds was assessed using epifluorescence microscopy. Images were taken at ×40 magnification. Scale bar, 50 μm.
Gli36Δ5 or U87-MG cell lines plated in 96-well culture plates (20,000 cells per well; 3 wells per condition) were incubated over indicated time periods with […] of Cy5.5-labeled EGF peptides 2, 3, and 4 at 37° C. and 5% CO2. Cells were briefly rinsed with HEPES buffer and imaged with a Tecan Infinite M200 fluorescence plate reader (excitation 670 nm, emission 700 nm).

[2] = system: U87-MG orthotopic brain tumors; assay: In vivo FMT imaging of orthotopic U87-MG brain tumors; set-up: species or system mice
Experimental: (§1) NIH athymic nude female mice (5-8 weeks and 20-25 g upon arrival, NCI-NIH) were maintained at the Animal Resource Center at Case Western Reserve University (Cleveland, Ohio) according to institutional policies. Cell for brain implantation were harvested with 1 mL 0.05% trypsin-EDTA (Gibco) and briefly washed with PBS. Trypsin was inactivated by the addition of serum-containing media. The resulting cell suspension was centrifuged at […] for 3 minutes. The cell suspension was centrifuged and the supernatant was removed after 2 washes in PBS. Finally, the cells were resuspended in […] PBS for brain implants per animal (250,000 cells per animal for brain implants). […]
(§2) Mice bearing brain tumors derived from Gli36Δ5 or U87-MG cells were administered with compounds at 1 nmol/g via tail vein injection. […] Before injection, mice were anesthetized with isoflurane and subjected to tomographic and spectral fluorescence imaging. […] Fluorescence-mediated molecular tomography (FMT) images were obtained using FMT2500 (Perkin-Elmer), and 3-dimensional reconstructions of fluorescent signals were acquired using the accompanying software TrueQuant. Quantitative fluorescent signals for Cy5.5 of compound 2 were calibrated as per manufacturer's instructions using the 680-channel. […] Fluorescence images were acquired before treatment, immediately after and 1.5 hours after treatment. […]

[3] = system: Gli36Δ5 orthotopic brain tumors; assay: In vivo FMT imaging of orthotopic Gli36Δ5 brain tumors; set-up: species or system mice
Experimental: as §1, §2

[4] = system: A431 cells (high wild-type EGFR); assay: Saturation binding and fluorescence uptake in A431 cells; assay type: cell-based, human; details: A431 cells incubated with compound plus EGF ligand
Description: We also examined the expression of EGFRvIII in the cell lines. […] In addition, we examined A431 cells, a squamous carcinoma cell line, that expresses high levels of wild-type EGFR.

EGFR = biological target: T1, EGFR (Homo sapiens, UniProt P00533); assay: Saturation binding assay of Cy5.5-labeled peptides on Gli36Δ5 cells; details: for Kd: 37° C., 90 minutes, read-out: apparent binding affinity Kd from saturation binding assay
T1 construct: endogenous in cells; host or cells: Gli36Δ5 human glioblastoma cells
Experimental: To determine binding affinities of the Cy5.5-labeled peptides 1 to 4 to EGFR, a saturation binding assay protocol using labeled fluorescence ligand against cell surface receptors was adapted as previously reported. Briefly, Gli36Δ5 cells were plated 20,000 cells per well were plated on black Costar 96-well plates (cat. no. 3603). Probes were diluted to range of concentration ([…]) in growing media with 0.3% bovine serum albumin (BSA) and added into wells and incubated at 37° C. for 90 minutes at 5% CO2. Cells were then washed with PBS twice and dried. DMSO was added before reading fluorescence (excitation 670 nm, emission 700 nm) with a Tecan Infinite M200 plate reader. Saturation binding assay data were in quadruplicates and analyzed using one site binding classical equation for nonlinear regression analysis with the GraphPad Prism version 4.0.
Binding affinity was determined with nonlinear regression analysis with one site binding hyperbola with an equation: […], where Bmax is the maximal binding site and the Kd is the concentration required to reach half-maximal binding. ANOVA analysis at 95% confidence interval (CI) was used to compare treatments (*, […]; confidence interval, ***, […]). To compare live animal FMT, nonparametric one-way ANOVA analyses (Kruskal-Wallis tests) and the median differences were considered significant with P=0.0220.

[5] = In vivo FMT imaging of sham surgery animals; set-up: species or system mice
Experimental: as §1, §2

[6] = biological target: human epidermal growth factor receptor (EGFR) (human) (UniProt P00533); assay: cell-based or functional assay

Molecule: Cy5.5-(AEEA)1-NYQTPVYGWIYH-amide ({Cy5.5-AEEA}-NYQTPVYGWIYH-NH2) [Compound 6, Cy5.5-labeled scrambled peptide, specificity control, reference compound]
- accumulation in tumor, % of injected dose [1]: 0.006 % of injected dose
- tumor targeting (in words) [1]: did not target the tumor

Molecule: Cy5.5-(AEEA)1-YHWYGYTPQNVI-amide [Compound 2]
- cellular uptake / accumulation of fluorescence (in words) (Gli36Δ5 cells): greatest accumulation of fluorescence
- fluorescence signal as injected dose ([2]; U87-MG brain tumors, 1 nmol/g, 1 hour, FMT): 0.27%
- amount of fluorescence in matching ROI (FMT 3-dimensional reconstruction) ([2]; U87-MG tumor): 1,608 nmol/L
- fluorescence signal as injected dose ([3]; Gli36Δ5 brain tumors, 1 nmol/g, 1 hour, FMT): 1.1%
- amount of fluorescence in matching ROI (FMT 3-dimensional reconstruction) ([3]; Gli36Δ5 tumor): 9,271 nmol/L
- cell fluorescence in the presence of EGF ligand (in words) [4]: increasing fluorescence in the presence of the EGF ligand
- binding affinity to the cells (in words) (EGFR): micromolar range
- Kd (EGFR): 8.9 µM
- amount of fluorescence in matching ROI (FMT 3-dimensional reconstruction) [5]: 272 nmol/L
- accumulation in tumor, % of injected dose [1]: 1.1 % of injected dose
- tumor targeting (in words) [1]: targeted the tumor efficiently
- tumor targeting (in words) ([1]; listed as compound 2): targets the tumor significantly (***, P>0.0001) more efficiently than the scrambled peptide 6

Molecule: Cy5.5-(AEEA)2-YHWYGYTPQNVI-amide [Compound 3]
- cellular uptake / accumulation of fluorescence (in words) (Gli36Δ5 cells): Neither compound 1 (no linker) nor either of the molecules with greater linker numbers (compounds 3 and 4) was taken up by the cells to the same extent as compound 2
- binding affinity to the cells (in words) (EGFR): micromolar range
- Kd (EGFR): 64.4 µM

Molecule: Cy5.5-(AEEA)3-YHWYGYTPQNVI-amide [Compound 4]
- cellular uptake / accumulation of fluorescence (in words) (Gli36Δ5 cells): Neither compound 1 (no linker) nor either of the molecules with greater linker numbers (compounds 3 and 4) was taken up by the cells to the same extent as compound 2; also recorded: taken up by cells better than compound 3
- binding affinity to the cells (in words) (EGFR): micromolar range
- Kd (EGFR): 123 µM

Molecule: Cy5.5-YHWYGYTPQNVI-amide [Compound 1]
- cellular uptake / accumulation of fluorescence (in words) (Gli36Δ5 cells): Neither compound 1 (no linker) nor either of the molecules with greater linker numbers (compounds 3 and 4) was taken up by the cells to the same extent as compound 2
- binding affinity to the cells (in words) (EGFR): micromolar range
- Kd (EGFR): 18.5 µM

B1: Compound 6: Cy5.5-(AEEA)1-…-amide scrambled (peptide)
peptide: NYQTPVYGWIYH
modifications: Cy5.5-(AEEA)1 at the N-terminus; C-terminal amide
- percent of injected dose delivered to Gli36Δ5 brain tumor (% of injected dose) [6]: 0.006
